The results in this text go back to patent EP4678635A1, “CRYSTAL FORM OF NIROGACESTAT DIHYDROBROMATE, AND PREPARATION METHOD THEREFOR AND USE THEREOF” (Crystal Pharmaceutical (Suzhou) Co., Ltd., priority 2023, dated 2024).

≈ marks a conversion by molar mass, not a printed value. Read-outs that look alike come from different tables or passages of the source.

Type in all cases: physicochemical
Data set [1] is described as follows: Storage stability (crystalline form by XRPD, purity by HPLC). The conditions noted are these: for Purity (%): HPLC, initial purity 99.51; for Crystalline form / remains stable for at least / Solid form: sealed container; for Crystalline form / Solid form: XRPD; for Crystalline form: initial Form CSV; for Solid form: initial Form CSVI. Here is the method:
An appropriate amount of Form CSV was packaged in a sealed container and then stored under the conditions of 25 °C/60%RH, 40 °C/75%RH and 60 °C/75%RH, respectively. Crystalline form and purity were analyzed by XRPD and HPLC. The results are listed in Table 5, and the XRPD pattern overlay is depicted in Figure 4. […] Meanwhile, Form CSV remains stable for at least 2 months under 60 °C/75%RH condition, indicating Form CSV has good stability under stress condition as well.
An appropriate amount of Form CSVI was packaged in a sealed container and then stored under the conditions of 25 °C/60%RH, 40 °C/75%RH and 60 °C/75%RH, respectively. Crystalline form was analyzed by XRPD. The results are listed in Table 9, and the XRPD pattern overlay is depicted in Figure 11. […] Meanwhile, Form CSVI remains stable for at least 2 months under 60 °C/75%RH condition, indicating Form CSVI has good stability under stress condition as well.

Data set [2] is described as follows: Bulk and tapped density. The settings on record: for Bulk density: about 500 mg in 5-mL graduated cylinder, before tapping; for Tapped density: tapped 1250 times. The protocol: About 500 mg of sample was gently loaded into a 5-mL graduated cylinder to measure the bulk volume before tapping. The sample was then tapped 1250 times on a ZS-2E tap density tester to achieve a tapped state, and the tapped volume was recorded. The bulk density ρ0 and tapped density ρf were calculated accordingly.

Data set [3] in a line: Stability under mechanical force: ball milling, XRPD. The conditions noted are these: ball milling at 500 rpm for 5 minutes. The protocol:
An appropriate amount of Form CSV was subjected to ball milling at 500 rpm for 5 minutes using a ball mill. […]
An appropriate amount of Form CSVI was subjected to ball milling at 500 rpm for 5 minutes using a ball mill. […]

Data set [4] in a line: Compressibility (tensile strength of tablets, manual tablet press). The settings on record: about 60 mg, Φ6mm round tooling, pressure of 3 kN, 24 h at RT; T=2H/πDL. The protocol:
(§1) Tablets were prepared by an ENERPAC manual tablet press. About 60 mg of Form CSV and the prior art Form A were separately added to Φ6mm round tooling punches and compressed into tablets under a pressure of 3 kN. The tablets were left at RT for 24 h to allow complete elastic recovery. The diameter (D) and thickness (L) were measured using a vernier caliper, and their radial crushing strength (hardness, H) was determined using a tablet hardness tester. The tensile strength (T) of the powders was calculated with the following formula: T=2H/πDL. […] Under a certain force, higher tensile strength indicates better compressibility.
as §1, with “CSVI” for “CSV”

Data set [5] in a line: Stability under mechanical force: tableting under different pressures, XRPD. The settings on record: Φ6mm round tooling punch. Here is the method: An appropriate amount of Form CSV was compressed into tablets under different pressures with a Φ6mm round tooling punch. XRPD tests were conducted before and after compression. The test results are listed in Table 6, and the XRPD overlay is depicted in Figure 5.
An appropriate amount of Form CSVI was compressed into tablets under different pressures with a Φ6mm round tooling punch. XRPD tests were conducted before and after compression. The test results are listed in Table 10, and the XRPD overlay is depicted in Figure 12.

Data set [6] can be described thus: Kinetic solubility in FaSSIF and FeSSIF. The protocol: Table 2 [table] When solubility test is used to predict the in vivo performance of a drug, it is critical to simulate in vivo conditions as closely as possible. For oral drugs, FaSSIF and FeSSIF can be used to simulate the conditions in vivo and predict the effect of eating. Solubilities in these media are closer to those in vivo. Appropriate amounts of Form CSVI were suspended in FaSSIF and FeSSIF at 37 °C. After equilibration for 0.5 h, the suspensions were filtered and the concentration (mg/mL) of Compound I in each filtrate was measured by HPLC. […]

As to `CCC[C@H](N[C@H]1CCc2cc(F)cc(F)c2C1)C(=O)Nc1cn(C(C)(C)CNCC(C)(C)C)cn1` [Form CSV, (S)-2-(((S)-6,8-difluoro-1,2,3,4-tetrahydronaphthalen-2-yl)amino)-N-(1-(2-methyl-1-(neopentylamino)propan-2-yl)-1H-imidazol-4-yl) pentanamide], the “Purity (%)” value in data set [1] (25 °C/60%RH, 6 months) was found to be 99.52%; in data set [1] (40 °C/75%RH, 6 months) it was 99.50%; in data set [1] (60 °C/75%RH, 2 months) it was 99.54%. Moreover, the Crystalline form result is reported as “Form CSV” in data set [1] (25 °C/60%RH, 6 months); “Form CSV” in data set [1] (40 °C/75%RH, 6 months); “Form CSV” in data set [1] (60 °C/75%RH, 2 months). Further, the “remains stable for at least” value in data set [1] (25 °C/60%RH) is listed as “at least 6 months”; in data set [1] (40 °C/75%RH), “at least 6 months”; in data set [1] (60 °C/75%RH), “at least 2 months”. Moreover, the Bulk density in data set [2] stood at 0.422 g/mL. In data set [2], this molecule gave a Tapped density of 0.506 g/mL. Besides, the “crystalline form before and after ball milling” value in data set [3] is “remained unchanged”. This molecule showed an average tensile strength in data set [4] of 0.55 MPa. Also, the “After tableting (crystalline form)” value in data set [5] (Pressure 5 kN), in data set [5] (Pressure 10 kN) and in data set [5] (Pressure 20 kN) was “Form CSV” throughout.

Take `CCC[C@H](N[C@H]1CCc2cc(F)cc(F)c2C1)C(=O)Nc1cn(C(C)(C)CNCC(C)(C)C)cn1` [Form CSVI, (S)-2-(((S)-6,8-difluoro-1,2,3,4-tetrahydronaphthalen-2-yl)amino)-N-(1-(2-methyl-1-(neopentylamino)propan-2-yl)-1H-imidazol-4-yl) pentanamide]: the solubility at 0.5 h stood at 10100 µg/mL (≈ 20.6 mM) in data set [6] (FeSSIF, 37 °C, equilibration for 0.5 h, HPLC, read-out: solubility (concentration of Compound I in filtrate)) and 16100 µg/mL (≈ 32.9 mM) in data set [6] (fassif, 37 °C, equilibration for 0.5 h, HPLC, read-out: solubility (concentration of Compound I in filtrate)). For the same molecule, the Solid form entry is listed as “Form CSVI” in data set [1] (25 °C/60%RH, 8 months); “Form CSVI” in data set [1] (40 °C/75%RH, 8 months); “Form CSVI” in data set [1] (60 °C/75%RH, 2 months). Moreover, the “remains stable for at least” value is reported as “at least 8 months” in data set [1] (25 °C/60%RH), “at least 8 months” in data set [1] (40 °C/75%RH) and “at least 2 months” in data set [1] (60 °C/75%RH). In data set [3], the “crystalline form before and after ball milling” value is listed as “remained unchanged”. Also, the average tensile strength in data set [4] was found to be 0.907 MPa. The “After tableting (crystalline form)” value in data set [5] (Pressure 5 kN), in data set [5] (Pressure 10 kN) and in data set [5] (Pressure 20 kN) was “Form CSVI” each time.

In data set [6] (fassif, solubility (concentration of Compound I in filtrate)), `CCC[C@H](N[C@H]1CCc2cc(F)cc(F)c2C1)C(=O)Nc1cn(C(C)(C)CNCC(C)(C)C)cn1` [Form A, (S)-2-(((S)-6,8-difluoro-1,2,3,4-tetrahydronaphthalen-2-yl)amino)-N-(1-(2-methyl-1-(neopentylamino)propan-2-yl)-1H-imidazol-4-yl) pentanamide, reference compound] registered a solubility at 0.5 h of 4200 µg/mL (≈ 8.58 mM). In data set [6] (solubility (concentration of Compound I in filtrate)), this molecule came in with a solubility at 0.5 h of 7500 µg/mL (≈ 15.3 mM). In data set [2] (listed as The prior art Form A), this molecule came in with a Bulk density of 0.251 g/mL and a Tapped density of 0.282 g/mL. In addition, the average tensile strength in data set [4] is 0.37 MPa.
